Assay results from ChEMBL document CHEMBL5625201, “Discovery and structure-activity relationship studies of novel α-ketoamide derivatives targeting the SARS-CoV-2 main protease” (Eur J Med Chem, 2023).

Experiments:
SARS-CoV-2 [1] = assay: Antiviral activity against SARS-CoV-2 infected in human HPAEpiC cells assessed as reduction in viral replication by RT-qPCR assay; type: functional, organism-based; conditions: Severe acute respiratory syndrome coronavirus 2, HPAEpiC
[2] = molecular target: T1, Replicase polyprotein 1ab (Severe acute respiratory syndrome coronavirus 2, UniProt P0DTD1); assay: Inhibition of SARS-CoV-2 main protease by FRET assay
Cytochrome P450 3A4 = Cytochrome P450 3A4 (Homo sapiens, UniProt P08684); assay: Inhibition of CYP3A4 (unknown origin); type: ADME
Cytochrome P450 2C9 = Cytochrome P450 2C9 (Homo sapiens, UniProt P11712); assay: Inhibition of CYP2C9 (unknown origin); type: ADME
[3] = Cytotoxicity against African green monkey Vero cells; type: toxicity, cell-based; conditions: chlorocebus sabaeus
[4] = Cytotoxicity against human BEAS-2B cells; type: toxicity, cell-based
[5] = molecular target: T1, Replicase polyprotein 1ab; assay: Inhibition of SARS-CoV-2 Main protease using MCA-AVLQSGFR-Lys(DNP)-Lys-NH2 as substrate preincubated for 10 mins followed by substrate addition by FRET assay
SARS-CoV-2 [6] = assay: Antiviral activity against SARS CoV-2 infected in African green monkey VeroE6/TMPRSS2 assessed as reduction in plaque formation measured after 2 days by crystal violet staining based assay; type: functional, organism-based; conditions: Severe acute respiratory syndrome coronavirus 2, VeroE6/TMPRSS2, 48 h

Sequence of Cytochrome P450 2C9 (P11712 whole entry): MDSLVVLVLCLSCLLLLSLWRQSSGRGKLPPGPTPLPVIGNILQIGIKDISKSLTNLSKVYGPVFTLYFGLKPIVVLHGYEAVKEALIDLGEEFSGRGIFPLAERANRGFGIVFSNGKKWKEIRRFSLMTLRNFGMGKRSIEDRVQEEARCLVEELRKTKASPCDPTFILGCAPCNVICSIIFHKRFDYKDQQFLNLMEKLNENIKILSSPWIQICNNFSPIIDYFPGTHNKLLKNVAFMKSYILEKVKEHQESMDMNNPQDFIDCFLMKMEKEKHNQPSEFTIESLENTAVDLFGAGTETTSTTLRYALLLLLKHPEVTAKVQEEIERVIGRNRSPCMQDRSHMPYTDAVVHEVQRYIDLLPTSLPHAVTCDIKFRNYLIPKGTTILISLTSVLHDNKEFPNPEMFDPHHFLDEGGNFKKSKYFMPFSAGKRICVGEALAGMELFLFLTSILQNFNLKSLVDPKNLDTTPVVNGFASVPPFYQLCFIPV
Sequence of Cytochrome P450 3A4 (P08684 whole entry): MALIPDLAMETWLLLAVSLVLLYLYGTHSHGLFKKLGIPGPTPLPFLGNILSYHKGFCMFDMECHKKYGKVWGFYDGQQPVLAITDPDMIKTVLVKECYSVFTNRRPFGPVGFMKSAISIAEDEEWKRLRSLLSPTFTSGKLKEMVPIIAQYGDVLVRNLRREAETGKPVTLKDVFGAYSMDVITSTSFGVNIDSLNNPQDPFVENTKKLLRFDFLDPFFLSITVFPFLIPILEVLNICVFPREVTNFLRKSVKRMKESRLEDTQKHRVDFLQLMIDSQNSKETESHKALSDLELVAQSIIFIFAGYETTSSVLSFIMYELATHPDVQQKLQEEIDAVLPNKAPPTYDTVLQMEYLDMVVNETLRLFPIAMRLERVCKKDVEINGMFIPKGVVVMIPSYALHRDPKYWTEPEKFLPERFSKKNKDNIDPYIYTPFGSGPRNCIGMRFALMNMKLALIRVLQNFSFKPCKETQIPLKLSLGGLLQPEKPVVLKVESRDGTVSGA

CCC(CC)COC(=O)[C@H](C)N[P@](=O)(OC[C@H]1O[C@@](C#N)(c2ccc3c(N)ncnn23)[C@H](O)[C@@H]1O)Oc1ccccc1
EC50 (SARS-CoV-2 [1]): 0.364 µM

CC(C)(C)[C@H](NC(=O)C(F)(F)F)C(=O)N1C[C@H]2[C@@H]([C@H]1C(=O)N[C@H](C#N)C[C@@H]1CCNC1=O)C2(C)C
EC50 (SARS-CoV-2 [1]): 0.05 µM

O=C(NCc1ccccn1)C(=O)[C@@H](Cc1ccccc1)NC(=O)[C@H]1COCCN1C(=O)[C@@H]1C[C@@H]2[C@H](C1)C2(F)F
IC50 [2]: 0.0236 µM

O=C(CCCc1ccccc1)N[C@H](Cc1ccccc1)C(=O)C(=O)NCc1ccccn1
IC50 [2]: 0.0338 µM | inhibition (INH) (Cytochrome P450 3A4): Active | inhibition (INH) (Cytochrome P450 2C9): Active

O=C(CNC(=O)[C@@H]1C[C@@H]2[C@H](C1)C2(F)F)N[C@H](Cc1ccccc1)C(=O)C(=O)NCc1ccccn1
IC50 [2]: 0.0179 µM

C[C@@H](NC(=O)CC1CCC(F)(F)CC1)C(=O)N[C@H](Cc1ccccc1)C(=O)C(=O)NCc1ccccn1
IC50 [2]: 0.0161 µM

CN(CC(=O)N[C@H](Cc1ccccc1)C(=O)C(=O)NCc1ccccn1)C(=O)C1CCC(F)(F)CC1
IC50 [2]: 0.0306 µM

N#Cc1cc(C(=O)NCC(=O)N[C@H](Cc2ccccc2)C(=O)C(=O)NCc2ccccn2)ccc1F
IC50 [2]: 0.168 µM

O=C(CNC(=O)c1ccccc1)N[C@H](Cc1ccccc1)C(=O)C(=O)NCc1ccccn1
IC50 [2]: 0.141 µM | inhibition (INH) (Cytochrome P450 3A4): Active | inhibition (INH) (Cytochrome P450 2C9): Active

O=C(CCc1ccccc1)N[C@H](Cc1ccccc1)C(=O)C(=O)NCc1ccccn1
IC50 [2]: 0.0867 µM | inhibition (INH) (Cytochrome P450 3A4): Active | inhibition (INH) (Cytochrome P450 2C9): Active

COC[C@@H](NC(=O)C1CCC(F)(F)CC1)C(=O)N[C@H](Cc1ccccc1)C(=O)C(=O)NCc1ccccn1
IC50 [2]: 0.017 µM | EC50 (SARS-CoV-2 [1]): 0.0595 µM | CC50 [3]: > 100 µM | CC50 [4]: > 100 µM

O=C(CNC(=O)C1CCC(F)(F)CC1)N[C@H](Cc1ccc(Cl)c(Cl)c1)C(=O)C(=O)NCc1ccccn1
IC50 [2]: 0.0344 µM

C[C@@H](NC(=O)C1CCC(F)(F)CC1)C(=O)N[C@H](Cc1ccccc1)C(=O)C(=O)NCc1ccccn1
EC50 (SARS-CoV-2 [1]): 0.0653 µM | CC50 [3]: > 100 µM | CC50 [4]: > 100 µM

C[C@@H](NC(=O)[C@@H]1C[C@@H]2[C@H](C1)C2(F)F)C(=O)N[C@H](Cc1ccccc1)C(=O)C(=O)NCc1ccccn1
EC50 (SARS-CoV-2 [1]): 0.0978 µM | CC50 [3]: > 100 µM | CC50 [4]: > 100 µM

O=C(Cc1ccccc1)N[C@H](Cc1ccccc1)C(=O)C(=O)NCc1ccccn1
IC50 [2]: 0.219 µM

O=C(CNC(=O)C1CCC(F)(F)CC1)N[C@H](Cc1ccccc1)C(=O)C(=O)NCc1ccccn1
EC50 (SARS-CoV-2 [1]): 0.102 µM | CC50 [3]: > 100 µM | CC50 [4]: > 100 µM

O=C(NCc1ccccn1)C(=O)[C@@H](Cc1ccccc1)NC(=O)[C@H]1CC(F)(F)CN1C(=O)[C@@H]1C[C@@H]2[C@H](C1)C2(F)F
IC50 [2]: 0.0372 µM

O=C(NCc1ccccn1)C(=O)[C@@H](Cc1ccccc1)NC(=O)[C@H]1CC(F)(F)CN1C(=O)CC1CCC(F)(F)CC1
IC50 [2]: 0.035 µM

O=C(NCc1ccccn1)C(=O)[C@@H](Cc1ccccc1)NC(=O)c1ccccc1
IC50 [2]: 0.208 µM

O=C(CC1CCC(F)(F)CC1)NCC(=O)N[C@H](Cc1ccccc1)C(=O)C(=O)NCc1ccccn1
IC50 [2]: 0.015 µM

O=C(COc1ccccc1)N[C@H](Cc1ccccc1)C(=O)C(=O)NCc1ccccn1
IC50 [2]: 0.0555 µM | inhibition (INH) (Cytochrome P450 3A4): Active | inhibition (INH) (Cytochrome P450 2C9): Active

O=C(NCc1ccccn1)C(=O)[C@@H](Cc1ccccc1)NC(=O)C1(NC(=O)C2CCC(F)(F)CC2)CC1
IC50 [2]: 0.0212 µM

O=C(CNC(=O)c1ccc(Cl)c(F)c1)N[C@H](Cc1ccccc1)C(=O)C(=O)NCc1ccccn1
IC50 [2]: 0.0185 µM

CC[C@@H](NC(=O)C1CCC(F)(F)CC1)C(=O)N[C@H](Cc1ccccc1)C(=O)C(=O)NCc1ccccn1
IC50 [2]: 0.0416 µM

O=C(NCc1ccccn1)C(=O)[C@@H](Cc1ccccc1)NC(=O)[C@H]1COCCN1C(=O)CC1CCC(F)(F)CC1
IC50 [2]: 0.0109 µM | EC50 (SARS-CoV-2 [1]): 0.0664 µM | CC50 [3]: > 100 µM | CC50 [4]: > 100 µM

[2H][C@](C(=O)N[C@@H](C)c1ccc(F)cc1)(c1ccccc1)N(C(=O)C(C)=O)c1ccc2c(c1)oc1ccccc12
IC50 [5]: 0.008 µM | EC50 (SARS-CoV-2 [6]): 0.011 µM
